Test results: ChEMBL document CHEMBL1201862, “PubChem BioAssay data set” (2004)
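Dose response: 5 concentrations. Exposure: 48 h. Format: 96-well plates. Endpoint: linear interpolation; highest concentration if not reached. GI50 marks 50% less growth.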 Activity calls are given as the source filed them. Rule as the data show it: active = GI50 up to about 1.1 µM and inactive = higher.

Experiments:
Experiment in all cases: DTP human tumour cell line panel, 48 h
[1] = tested on: RPMI-8226
[2] = tested on: SN12C
[3] = tested on: TK-10
[4] = tested on: SK-MEL-28
[5] = tested on: KM12
[6] = tested on: Malme-3M
[7] = tested on: OVCAR-8
[8] = tested on: EKVX
[9] = tested on: M14
[10] = tested on: K562
[11] = tested on: UO-31
[12] = tested on: SF-539
[13] = tested on: SF-268
[14] = tested on: MOLT-4
[15] = tested on: SR
[16] = tested on: A498
[17] = tested on: SNB-75
[18] = tested on: OVCAR-3
[19] = tested on: UACC-62
[20] = tested on: OVCAR-4

Measured: GI50

C1=CCN(c2ccccc2)CC1
inactive: [1] 2.48 µM | [2] 26.3 µM | [3] 40 µM | [4] 24.8 µM | [5] 64.9 µM | [6] 22.6 µM | [7] 27 µM | [8] 97.1 µM | [9] 19.9 µM | [10] 30.1 µM | [11] > 100 µM | [12] 43.5 µM | [13] 36.6 µM | [14] 5.69 µM | [15] 2.93 µM | [16] > 100 µM | [17] 33.1 µM | [18] 25.4 µM | [19] 30.3 µM

NC(CP(=O)(O)O)C(=O)O (centres undefined)
inactive: [1] > 100 µM | [2] > 100 µM | [3] > 100 µM | [4] > 100 µM | [5] > 100 µM | [20] > 100 µM | [6] > 100 µM | [7] > 100 µM | [8] > 100 µM | [9] > 100 µM | [10] > 100 µM | [11] > 100 µM | [13] > 100 µM | [14] > 100 µM | [15] > 100 µM | [16] > 100 µM | [17] > 100 µM | [18] > 100 µM | [19] > 100 µM

N#CC(C#N)=C1CCC2C(=C(C#N)C#N)CCC12 (centres undefined)
inactive: [1] > 100 µM | [2] > 100 µM | [3] > 100 µM | [5] > 100 µM | [20] > 100 µM | [6] > 100 µM | [7] > 100 µM | [8] > 100 µM | [9] > 100 µM | [10] > 100 µM | [11] > 100 µM | [12] > 100 µM | [13] > 100 µM | [14] > 100 µM | [15] > 100 µM | [16] > 100 µM | [17] > 100 µM | [18] > 100 µM | [19] > 100 µM

CC(Cc1ccccc1)NC1=NCCO1 (centres undefined)
inactive: [1] 37.8 µM | [2] 21.8 µM | [20] 36.2 µM | [7] 48.1 µM | [8] 54 µM | [11] 23.6 µM | [12] 14 µM | [14] 47 µM | [15] 42.8 µM | [16] 29.8 µM | [17] 43.3 µM | [19] 52.4 µM
